Measurements taken from patent US12364722B2, “Multifunctional lactobacillus capable of relieving PFOA toxic effects and application thereof” (priority 2019, dated 2025).

Test system: mice with constipation
Assay: Loperamide constipation model: fecal water content and first black stool defecation time
Format: in vivo, BALB/c mice
Conditions: loperamide 10 mg/kgBW constipation, vs model group
From the text: 40 SPF male BALB/c mice (20-25 g) were randomly divided into 5 groups: a blank control group, a constipation model control group, a Lactobacillus fermentum CCFM1051 intervention group, a Lactobacillus plantarum control group and a phenolphthalein treatment group with 10 mice in each group. The freeze-dried Lactobacillus fermentum CCFM1051 powder was resuspended in skim milk powder to prepare a bacterial suspension with a concentration of 4.0×10^9 CFU/mL. […] The fecal water content was calculated by using the following formula: Fecal water content (%)=(wet weight of feces−dry weight of feces)/wet weight of feces×100. On the morning of the 17th day, the mice in the blank control group were gavaged with normal saline, the mice in the other groups were gavaged with loperamide, after the gavage for 1 h, all the mice were gavaged with 0.25 mL of an activated carbon arabic gum aqueous solution, each mouse was separately placed in a clean stainless steel cage covered with absorbent paper, time (min) from start of the gavage with the activated carbon to defecation of first black stool was recorded as first black stool defecation time to evaluate an effect of the Lactobacillus fermentum CCFM1051 on constipation of the mice, and during the period, the mice ate and drank freely.

O=C1OC(c2ccc(O)cc2)(c2ccc(O)cc2)c2ccccc21 [phenolphthalein]
first black stool defecation time (activated carbon gavage): significantly shortened
fecal water content: extremely significantly increased
